# Entries after “also recorded” stand apart in the source; their conditions may differ.
# Tests used:
# [1] = test system: adult guinea pig LVCMs; format: cell-based
# [2] = test system: ACMs; format: cell-based, guinea pig
molecule,measurement,setting,value
CC(=O)OCC[N+](C)(C)C [acetylcholine],MDP,[1],−59.0±1.0 mV
same,cycle length,[1],293 ± 16 ms
same,effect on spontaneous APs,[1],no effect
same,phase 4 slope,[1],241±16 mV/s
"NC1=N[C@H](O)[C@H]2[C@H]3O[C@]4(O)O[C@@H]([C@@H](O)[C@@]2(N1)[C@@H]4O)[C@]3(O)CO [TTX, tetrodotoxin]",AP overshoot,[1],disappeared
same,change in phase 4 slope and MDP,[1],no statistical difference
same,cycle length,[1],328 ± 23 ms
same,maximal upstroke velocity of AP,[1],5.3±0.6 V/s
same,shift in TOP,[1],17 mV
CC(C)NCC(O)c1ccc(O)c(O)c1 (centres unmarked) [isoproterenol],MDP,[1],−55.5±0.7 mV
same,TOP,[1],−45.2±0.4 mV
same,cycle length,[1],182 ± 4.1 ms
same,increase in firing rate,[1],27%
same,midpoint (V1/2) of steady-state activation,[1],−56.9±1.6 mV
same,phase 4 slope,[1],350±12 mV/s
ZD7288,APD50,[1],272 ± 31 ms
same,effect of ZD7288 on induced If and AP firing,[1],blocked; also recorded: silenced
same,sensitivity of Ad-CGI-HCN1-induced If to HCN blocker,[1],sensitive
same,RMP,[2],−47.6±1.2 mV
same,effect of If suppression on firing,[2],triggered rhythmic firing; also recorded: generated AP

# — patent publication US20080089874A1, “DIRECTED DIFFERENTIATION AND MATURATION OF STEM CELL-DERIVED CARDIOMYOCYTES” (The Regents of the University of California, priority 2006, published 2008)
